Like-named read-outs stand apart in the source and are kept apart here. Marks after values point to notes of the source that are not given here.
Key:
[1] = Caspofungin plasma pharmacokinetics in anaesthetised, ventilated pigs (shock vs control); assay type: in vivo; details: pig, 70 mg one-hour iv infusion; for level at 4 h / AUC(0-t): iv, 70 mg; for level at 4 h: four hours after start of infusion, read-out: Cp (caspofungin plasma concentration at four hours); for AUC(0-t): unit as printed in abstract, read-out: area under curve (AUC) from zero to four hours
Experimental: (§1) In the shock group (n = 12), the animals were bled through the carotid catheter (Figure 1). Blood withdrawal was started at a rate of 0.8 to 1 mL/kg/minute and continued until all three of the following end points were achieved: MAP of 40 to 45 mmHg, decrease in CI greater than 40% and SVO2 lower than 30%. End points were maintained for a period of 120 minutes by means of further bleeding. During the four-hour resuscitation period, the animals received isotonic saline at a rate of 2 mL/kg/minute. The infusions were stopped when the CI reached 90% of the baseline value and SVO2 was above 50%, and the infusions were then adjusted to keep these parameters constant until the animals were killed. At the beginning of the resuscitation period, the animals received a one-hour intravenous infusion of 70 mg of caspofungin acetate (Cancidas; Merck Sharp & Dohme-Chibret, Paris, France) diluted in 50 mL of saline, which was injected into the right atrium through the proximal lumen of the pulmonary arterial catheter via a pump-driven syringe. A second group of animals (n = 16) used as controls was anaesthetised and ventilated, but they were not subjected to bleeding and fluid loading. These animals were also killed four hours after the start of the caspofungin infusion.
(§2) EDTA-blood samples were drawn through a dedicated arterial catheter just before and 15, 30, 60 and 90 minutes and 2 hours, 3 hours and 4 hours after the caspofungin infusions were started in both groups. Then the animals were immediately killed, and lung tissue samples (2 cm × 2 cm × 2 cm) were surgically removed from nondependent parts of both the lower and upper lobes after sternotomy. Plasma was obtained by blood centrifugation at 1,500 g for 15 minutes. Plasma and lung samples were immediately stored at -80°C. The remaining lung tissues were used for the determination of extravascular lung water indexed to body weight (EVLWI) by using a gravimetric method as previously described. Caspofungin acetate was kindly provided by Merck Sharp & Dohme-Chibret. Plasma and lung caspofungin concentrations were determined by using a validated high-performance liquid chromatography method with fluorescence detection after a solid-phase extraction (Bond Elut™ column; Agilent Technologies, Santa Clara, CA, USA). Caspofungin and the internal standard (IS) propranolol were separated on a LiChrospher column (100 RP-8e (5 μm); Merck Chemicals KGaA, Darmstadt, Germany) using a mobile phase consisting of acetonitrile and 0.1% trifluoroacetic acid buffer (200:300 vol/vol) at a flow rate of 1 mL/minute. The retention times were 6 and 22 minutes for IS and caspofungin, respectively. The linearity range was 0.3 to 7.5 mg/L (r^2 > 0.998). The lower limit of quantification, defined as the lowest concentration that could be determined with a relative error and precision (relative standard deviation) less than 20%, was 0.3 μg/mL. Intraday and interday levels of interassay precision were 1.91% and 4.84% (0.5 μg/mL), 6.94% and 10.4% (3 μg/mL) and 7.84% and 12% (5 μg/mL) for serum samples. The maximal concentration (Cmax) was measured at the end of the infusion.
(§3) The AUC from zero to four hours (AUC0→4 hours) was determined using the trapezoidal rule. The concentration vs time data for both groups were modelled using the population approach method implemented in Monolix version 3.1 release 2 software. A two-compartment mammillary model was developed and parameterised in terms of central volume of distribution of caspofungin (V1) and elimination clearance of caspofungin (CL), peripheral volume of distribution of caspofungin (V2) and intercompartmental clearance of caspofungin (Q). The total apparent volume of distribution of caspofungin (Vd) was calculated as V1 + V2. The interindividual variability (ω) for each parameter and the residual variability of the model (σ) were estimated.

[2] = Lung tissue caspofungin concentration and tissue-to-plasma ratio in pigs; assay type: in vivo; details: pig
Experimental: as §1
as §2, with “Intraday and interday levels of interassay precision were 1.91% and 4.84% (0.5 μg/mL), 6.94% and 10.4% (3 μg/mL) and 7.84% and 12% (5 μg/mL) for serum samples.” left out
Lung samples were weighed (200 ± 150 mg), homogenised with a 1.5-mL saline solution, ground for 15 minutes and centrifuged twice at 10,000 rpm for 10 minutes. […] Lung caspofungin concentrations (Ct) were determined four hours after starting the caspofungin infusion and are expressed as micrograms per gram of lung tissue. The tissue-to-plasma ratio for each group was calculated as R = (Ct/Cp) × 100, where Cp is the caspofungin plasma concentration at four hours.

[3] = Two-compartment population pharmacokinetic analysis (Monolix) of plasma caspofungin in pigs; assay type: in vivo; details: pig; for Q (intercompartmental clearance) / V1 (central volume of distribution) / V2 (peripheral volume of distribution) / clearance: two-compartment population estimate; for clearance: 70 mg one-hour iv infusion, read-out: CL (central elimination clearance) (converted)
Experimental: as §3

[4] = healthy humans, single dose of 70 mg, cited from earlier work
Experimental: In the early clinical development program for caspofungin, a target concentration of 1 μg/mL was used as a guide for concentrations likely to be efficacious. This target was determined on the basis of in vitro susceptibility test results and was selected as the concentration that exceeded the minimal inhibitory concentration at which 90% of Candida spp. isolates were inhibited.

[5] = surgical ICU patients; 24-hour trough plasma concentration; cited from earlier work
Text: The pharmacokinetics of caspofungin have been recently studied in a cohort of surgical ICU patients. […] Therefore, the authors concluded that a dose adjustment may be necessary in some ICU patients, based on the monitoring of plasma conc ...

Structure (SMILES): CC[C@H](C)C[C@H](C)CCCCCCCCC(=O)N[C@H]1C[C@@H](O)[C@@H](NCCN)NC(=O)[C@@H]2[C@@H](O)CCN2C(=O)[C@H]([C@H](O)CCN)NC(=O)[C@H]([C@H](O)[C@@H](O)c2ccc(O)cc2)NC(=O)[C@@H]2C[C@@H](O)CN2C(=O)[C@H]([C@@H](C)O)NC1=O [caspofungin, caspofungin acetate]
- Cmax (maximum caspofungin plasma concentration) ([1]; control group (n = 16), no haemorrhage, measured at end of infusion, HPLC with fluorescence detection, median): 33.1 µg/mL
- level at 4 h ([1]; plasma, control group (n = 16), median): 20700 ng/mL
- AUC(0-t) ([1]; plasma, control group, median): 80800 ng·h/mL
- level at 4 h ([1]; plasma, shock group (n = 12), median): 16100 ng/mL
- AUC(0-t) ([1]; plasma, shock group, median): 60300 ng·h/mL
- median AUC0→4 hours lower in the shock group than in the control group ([1]; shock vs control group): 25%
- median maximal plasma concentration lower in the shock group than in the control group ([1]; shock vs control group): 35%
- Cmax ([1]; plasma, shock group (n = 12), hypovolaemic shock then saline fluid loading, measured at end of infusion, HPLC with fluorescence detection, median, read-out: Cmax (maximum caspofungin plasma concentration)): 21600 ng/mL
- Ct (lung caspofungin concentration at four hours) ([2]; control group (n = 16), 70 mg one-hour iv infusion, lung homogenate, four sampled lobes averaged, HPLC with fluorescence detection, median): 1.64 µg/g
- Ratio = (Ct/Cp) × 100 (lung tissue-to-plasma ratio) ([2]; control group (n = 16), four hours after start of infusion, median): 7.28%
- tissue level at time at 4 h ([2]; shock group (n = 12), 70 mg one-hour iv infusion, lung homogenate, four sampled lobes averaged, HPLC with fluorescence detection, median, read-out: Ct (lung caspofungin concentration at four hours)): 1220 ng/g
- Ratio = (Ct/Cp) × 100 (lung tissue-to-plasma ratio) ([2]; shock group (n = 12), four hours after start of infusion, median): 7.76%
- median lung caspofungin concentration lower in the shock group than in the control group ([2]; shock vs control group, four hours after start of infusion): 25%
- Q (intercompartmental clearance) ([3]; control group (n = 16)): 4.23 L/h
- V1 (central volume of distribution) ([3]; control group (n = 16)): 0.98 L
- V2 (peripheral volume of distribution) ([3]; control group (n = 16)): 1.43 L
- clearance ([3]; plasma, iv, 70 mg, control group (n = 16)): 4.83 mL/min
- clearance ([3]; plasma, iv, 70 mg, shock group (n = 12)): 3.5 mL/min
- Q (intercompartmental clearance) ([3]; shock group (n = 12)): 8.16* L/hour
- V1 (central volume of distribution) ([3]; shock group (n = 12)): 0.96 L
- V2 (peripheral volume of distribution) ([3]; shock group (n = 12)): 2.8* L
- Vd ([3]; plasma, iv, 70 mg, shock group (n = 12), calculated as V1 + V2, read-out: Vd (total apparent volume of distribution)): 3.9 L
- concentration at 24 hours (trough concentration) ([4]; mean (95% confidence interval, 1.18 to 1.71)): 1.42 µg/mL
- mean plasma Cmax ([4]; mean (95% confidence interval, 10.87 to 13.33)): 12.04 µg/mL
- patients in whom the trough concentration at day 2 of treatment exceeded 1.0 μg/mL [5]: 75%

Source: PMC3334764, “Effect of fluid loading during hypovolaemic shock on caspofungin pharmacokinetic parameters in pig” (Critical Care, 2011)
